Key:
[1] = target: human adult nAChRs expressed in HEK 293 cells (Homo sapiens, UniProt P02708+P11230+Q04844+Q07001); format: binding; details: P = 0.64 by one-way ANOVA
[2] = target: neuronal nAChR ACh recognition sites; details: ref Perry et al., 1988; Hunter et al., 1989; cited from earlier work

Chain of human adult nAChRs expressed in HEK 293 cells (P02708 21-457): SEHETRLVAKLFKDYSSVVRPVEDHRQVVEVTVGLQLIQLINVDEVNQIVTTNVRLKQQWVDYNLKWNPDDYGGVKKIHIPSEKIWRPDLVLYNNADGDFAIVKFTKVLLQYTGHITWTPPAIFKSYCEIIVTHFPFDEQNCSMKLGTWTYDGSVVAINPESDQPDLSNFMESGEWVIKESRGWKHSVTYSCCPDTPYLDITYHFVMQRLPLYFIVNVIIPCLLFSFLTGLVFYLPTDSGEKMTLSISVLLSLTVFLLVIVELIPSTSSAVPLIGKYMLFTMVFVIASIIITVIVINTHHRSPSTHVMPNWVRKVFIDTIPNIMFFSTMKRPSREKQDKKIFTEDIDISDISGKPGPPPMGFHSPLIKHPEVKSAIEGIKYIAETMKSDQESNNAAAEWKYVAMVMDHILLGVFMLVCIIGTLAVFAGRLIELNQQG
Chain of human adult nAChRs expressed in HEK 293 cells (P11230 24-501): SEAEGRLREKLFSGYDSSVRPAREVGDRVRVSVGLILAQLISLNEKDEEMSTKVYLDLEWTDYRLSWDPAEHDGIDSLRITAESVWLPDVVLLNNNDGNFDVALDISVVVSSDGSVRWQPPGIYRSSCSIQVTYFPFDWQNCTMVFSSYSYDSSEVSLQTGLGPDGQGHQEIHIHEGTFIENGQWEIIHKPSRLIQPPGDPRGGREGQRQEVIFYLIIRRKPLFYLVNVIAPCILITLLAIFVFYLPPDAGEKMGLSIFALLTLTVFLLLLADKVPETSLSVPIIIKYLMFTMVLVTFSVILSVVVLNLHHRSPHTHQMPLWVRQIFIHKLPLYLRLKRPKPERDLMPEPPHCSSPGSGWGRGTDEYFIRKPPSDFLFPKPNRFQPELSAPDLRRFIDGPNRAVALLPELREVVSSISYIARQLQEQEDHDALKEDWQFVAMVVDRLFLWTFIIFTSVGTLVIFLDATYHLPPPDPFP
Chain of human adult nAChRs expressed in HEK 293 cells (Q07001 22-517): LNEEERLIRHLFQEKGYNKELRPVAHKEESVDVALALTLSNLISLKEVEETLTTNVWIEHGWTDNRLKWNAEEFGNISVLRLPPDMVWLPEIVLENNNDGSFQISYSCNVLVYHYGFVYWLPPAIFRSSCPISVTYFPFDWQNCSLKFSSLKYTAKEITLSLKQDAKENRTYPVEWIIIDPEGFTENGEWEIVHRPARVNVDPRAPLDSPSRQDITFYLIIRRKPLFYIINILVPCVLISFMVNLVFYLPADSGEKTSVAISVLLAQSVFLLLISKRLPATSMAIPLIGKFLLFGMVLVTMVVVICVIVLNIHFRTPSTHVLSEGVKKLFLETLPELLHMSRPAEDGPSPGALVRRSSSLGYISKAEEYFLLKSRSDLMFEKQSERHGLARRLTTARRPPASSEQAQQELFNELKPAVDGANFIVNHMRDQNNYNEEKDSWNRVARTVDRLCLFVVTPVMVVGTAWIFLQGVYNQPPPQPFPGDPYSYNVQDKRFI
Chain of human adult nAChRs expressed in HEK 293 cells (Q04844 21-493): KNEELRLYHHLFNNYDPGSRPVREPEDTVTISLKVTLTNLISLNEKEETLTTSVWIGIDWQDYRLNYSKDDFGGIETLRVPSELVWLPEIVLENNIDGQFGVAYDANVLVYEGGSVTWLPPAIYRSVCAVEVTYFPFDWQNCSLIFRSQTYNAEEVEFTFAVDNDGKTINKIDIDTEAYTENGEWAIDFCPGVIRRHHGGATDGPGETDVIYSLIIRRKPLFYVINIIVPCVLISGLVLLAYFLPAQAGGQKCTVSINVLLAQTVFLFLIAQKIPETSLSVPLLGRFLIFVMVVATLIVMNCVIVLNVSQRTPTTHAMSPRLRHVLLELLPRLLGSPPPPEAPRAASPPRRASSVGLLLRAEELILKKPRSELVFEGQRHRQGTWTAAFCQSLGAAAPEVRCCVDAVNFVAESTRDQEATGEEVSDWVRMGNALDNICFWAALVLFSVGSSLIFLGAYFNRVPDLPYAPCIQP

C[N+](C)(C)CCOC(N)=O.[Cl-] [carbamylcholine]
difference in log IC 50 values in the presence of varying concentrations of tacrine [1]: No difference

Nc1c2c(nc3ccccc13)CCCC2 [tacrine, 9-amino-1,2,3,4-tetrahydroacridine]
Kd values, competitive binding [2]: low micromolar range

Source: PMC2229521 (The Journal of General Physiology, 2002)
